Patent US12258327B2, “5-membered heteroaryl-containing aminopyridine compounds as EGFR inhibitors” (YUHAN CORPORATION, priority 2021, dated 2025)
Read-outs that look alike come from different tables or passages of the source.

Legend:
[1] = target: EGFR wildtype (WT) (Homo sapiens, UniProt P00533); assay: Biochemical EGFR kinase assay (Lance Ultra TR-FRET), wildtype
Method in brief: (§1)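 Step 1: compound in kinase buffer, 0.003–10 μM. Step 2: kinase reaction 1 h at room temperature. Step 4: TR-FRET read at 615/665 nm; IC50 calculated.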

[2] = target: EGFR L858R/C797S (Homo sapiens, UniProt P00533, C797S/L858R); assay: Biochemical EGFR kinase assay (Lance Ultra TR-FRET), double mutant L858R/C797S
Method in brief: as §1

[3] = target: EGFR L858R/T790M/C797S (Homo sapiens, UniProt P00533, C797S/L858R/T790M); assay: Biochemical EGFR kinase assay (Lance Ultra TR-FRET), triple mutant L858R/T790M/C797S
Method in brief: as §1

[4] = target: EGFR del19/T790M/C797S (Homo sapiens, UniProt P00533, C797S/DEL746-750/T790M); assay: Biochemical EGFR kinase assay (Lance Ultra TR-FRET), triple mutant del19/T790M/C797S
Method in brief: as §1

[5] = target: EGFR del19/C797S (Homo sapiens, UniProt P00533, C797S/DEL746-750); assay: Biochemical EGFR kinase assay (Lance Ultra TR-FRET), double mutant del19/C797S
Method in brief: as §1

[6] = IC50 WT (nM) 100 μM ATP, 100 μM ATP
[7] = Km ATP, read-out: IC50 WT (nM) Km ATP
[8] = IC50 L858R/C797S (nM) 100 μM ATP, 100 μM ATP
[9] = Km ATP, read-out: IC50 L858R/C797S (nM) Km ATP
[10] = IC50 L858R/T790M/C797S (nM) 100 μM ATP, 100 μM ATP
[11] = Km ATP, read-out: IC50 L858R/T790M/C797S (nM) Km ATP
[12] = IC50 del19/T790M/C797S (nM) 100 μM ATP, 100 μM ATP
[13] = Km ATP, read-out: IC50 del19/T790M/C797S (nM) Km ATP
[14] = IC50 del19/C797S (nM) 100 μM ATP, 100 μM ATP
[15] = Km ATP, read-out: IC50 del19/C797S (nM) Km ATP

Sequence of EGFR del19/T790M/C797S (P00533 with tags, fused parts or gaps DEL746-750/T790M/C797S): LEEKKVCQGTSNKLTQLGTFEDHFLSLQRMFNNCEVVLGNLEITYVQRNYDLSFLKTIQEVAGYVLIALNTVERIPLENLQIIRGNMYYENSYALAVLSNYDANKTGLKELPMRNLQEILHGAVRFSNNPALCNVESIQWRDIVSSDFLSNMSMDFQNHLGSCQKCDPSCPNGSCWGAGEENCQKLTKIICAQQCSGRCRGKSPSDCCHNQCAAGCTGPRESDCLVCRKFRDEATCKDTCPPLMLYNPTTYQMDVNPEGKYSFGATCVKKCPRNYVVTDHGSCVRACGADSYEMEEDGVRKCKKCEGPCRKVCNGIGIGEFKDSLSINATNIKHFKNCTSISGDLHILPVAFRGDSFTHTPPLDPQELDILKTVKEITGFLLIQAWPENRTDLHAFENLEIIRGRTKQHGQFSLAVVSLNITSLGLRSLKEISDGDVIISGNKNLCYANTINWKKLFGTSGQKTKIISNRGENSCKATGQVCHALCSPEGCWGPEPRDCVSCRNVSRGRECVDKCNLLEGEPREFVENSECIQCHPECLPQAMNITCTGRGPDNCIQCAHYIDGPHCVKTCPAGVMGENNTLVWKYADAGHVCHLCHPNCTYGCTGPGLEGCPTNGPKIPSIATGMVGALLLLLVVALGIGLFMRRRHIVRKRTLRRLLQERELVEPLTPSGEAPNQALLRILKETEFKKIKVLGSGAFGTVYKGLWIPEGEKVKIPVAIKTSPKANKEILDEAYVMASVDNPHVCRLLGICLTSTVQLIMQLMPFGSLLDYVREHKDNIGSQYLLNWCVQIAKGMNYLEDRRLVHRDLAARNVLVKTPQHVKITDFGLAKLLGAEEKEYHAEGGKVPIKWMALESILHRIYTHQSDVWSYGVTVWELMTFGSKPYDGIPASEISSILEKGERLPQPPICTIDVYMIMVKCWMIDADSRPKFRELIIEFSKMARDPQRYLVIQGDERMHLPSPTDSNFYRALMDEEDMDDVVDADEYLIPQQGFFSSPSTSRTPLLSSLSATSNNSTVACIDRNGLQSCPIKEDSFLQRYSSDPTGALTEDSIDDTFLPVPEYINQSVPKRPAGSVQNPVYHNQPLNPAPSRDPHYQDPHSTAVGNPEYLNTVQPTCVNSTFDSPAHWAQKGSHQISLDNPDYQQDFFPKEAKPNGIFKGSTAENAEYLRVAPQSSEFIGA
Sequence of EGFR L858R/T790M/C797S (P00533 25-1210 T790M/C797S/L858R): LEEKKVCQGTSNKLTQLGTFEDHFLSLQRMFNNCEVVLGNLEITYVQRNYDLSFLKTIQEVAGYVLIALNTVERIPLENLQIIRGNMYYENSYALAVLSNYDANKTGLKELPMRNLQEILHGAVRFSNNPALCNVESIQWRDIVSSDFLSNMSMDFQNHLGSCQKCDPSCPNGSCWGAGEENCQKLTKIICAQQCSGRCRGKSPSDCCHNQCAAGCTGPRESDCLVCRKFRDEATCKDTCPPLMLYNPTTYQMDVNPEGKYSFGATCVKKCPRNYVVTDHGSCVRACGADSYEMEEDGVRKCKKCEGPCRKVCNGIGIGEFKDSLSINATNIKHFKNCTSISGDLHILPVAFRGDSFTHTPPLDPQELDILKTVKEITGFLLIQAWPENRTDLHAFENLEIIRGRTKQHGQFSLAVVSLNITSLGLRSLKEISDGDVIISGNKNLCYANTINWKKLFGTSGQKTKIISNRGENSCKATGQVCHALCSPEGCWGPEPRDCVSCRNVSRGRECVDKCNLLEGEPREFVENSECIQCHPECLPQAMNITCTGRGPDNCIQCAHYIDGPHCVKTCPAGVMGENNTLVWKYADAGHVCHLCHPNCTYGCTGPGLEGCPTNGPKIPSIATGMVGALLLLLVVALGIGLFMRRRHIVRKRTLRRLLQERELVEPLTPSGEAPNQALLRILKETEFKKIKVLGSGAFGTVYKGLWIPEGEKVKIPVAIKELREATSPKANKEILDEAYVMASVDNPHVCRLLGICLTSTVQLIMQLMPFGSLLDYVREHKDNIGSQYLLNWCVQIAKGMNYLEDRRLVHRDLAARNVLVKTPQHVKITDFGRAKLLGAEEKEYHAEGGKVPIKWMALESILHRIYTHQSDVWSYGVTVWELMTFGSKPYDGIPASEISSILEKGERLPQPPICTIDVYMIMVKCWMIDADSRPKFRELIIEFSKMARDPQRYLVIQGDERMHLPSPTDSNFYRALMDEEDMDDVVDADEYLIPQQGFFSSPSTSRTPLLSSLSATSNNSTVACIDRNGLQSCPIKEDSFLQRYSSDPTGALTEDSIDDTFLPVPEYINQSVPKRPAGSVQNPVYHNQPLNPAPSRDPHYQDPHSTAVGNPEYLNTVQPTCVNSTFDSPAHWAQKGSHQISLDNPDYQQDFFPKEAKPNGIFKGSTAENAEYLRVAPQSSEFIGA
Sequence of EGFR del19/C797S (P00533 with tags, fused parts or gaps DEL746-750/C797S): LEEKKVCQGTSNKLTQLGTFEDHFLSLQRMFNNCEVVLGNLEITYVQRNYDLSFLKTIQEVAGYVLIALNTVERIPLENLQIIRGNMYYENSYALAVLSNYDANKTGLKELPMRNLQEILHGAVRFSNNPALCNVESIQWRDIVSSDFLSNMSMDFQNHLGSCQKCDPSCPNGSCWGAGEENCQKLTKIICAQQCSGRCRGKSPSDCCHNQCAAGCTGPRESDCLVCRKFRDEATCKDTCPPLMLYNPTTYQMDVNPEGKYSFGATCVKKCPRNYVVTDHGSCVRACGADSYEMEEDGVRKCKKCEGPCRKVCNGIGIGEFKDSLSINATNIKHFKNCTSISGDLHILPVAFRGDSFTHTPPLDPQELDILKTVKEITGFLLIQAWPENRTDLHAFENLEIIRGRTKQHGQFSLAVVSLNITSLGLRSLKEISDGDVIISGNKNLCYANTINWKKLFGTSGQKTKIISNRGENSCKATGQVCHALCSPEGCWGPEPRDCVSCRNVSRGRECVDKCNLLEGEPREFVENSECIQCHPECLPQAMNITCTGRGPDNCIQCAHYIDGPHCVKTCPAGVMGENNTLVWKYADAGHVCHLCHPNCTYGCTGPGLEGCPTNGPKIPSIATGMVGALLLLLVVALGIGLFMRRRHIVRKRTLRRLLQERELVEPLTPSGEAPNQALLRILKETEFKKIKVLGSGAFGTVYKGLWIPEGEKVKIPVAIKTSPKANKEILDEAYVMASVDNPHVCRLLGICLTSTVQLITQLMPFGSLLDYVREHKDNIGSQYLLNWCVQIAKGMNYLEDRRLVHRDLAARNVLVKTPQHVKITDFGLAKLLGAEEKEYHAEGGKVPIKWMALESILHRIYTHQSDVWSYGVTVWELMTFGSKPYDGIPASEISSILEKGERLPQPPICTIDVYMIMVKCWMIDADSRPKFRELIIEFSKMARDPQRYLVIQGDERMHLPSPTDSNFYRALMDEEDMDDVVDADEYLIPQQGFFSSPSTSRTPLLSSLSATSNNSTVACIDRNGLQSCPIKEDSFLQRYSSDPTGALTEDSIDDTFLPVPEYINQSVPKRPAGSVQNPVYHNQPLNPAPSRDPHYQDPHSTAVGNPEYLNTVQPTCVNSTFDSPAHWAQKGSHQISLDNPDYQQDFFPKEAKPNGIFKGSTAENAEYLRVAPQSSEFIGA
Sequence of EGFR L858R/C797S (P00533 25-1210 C797S/L858R): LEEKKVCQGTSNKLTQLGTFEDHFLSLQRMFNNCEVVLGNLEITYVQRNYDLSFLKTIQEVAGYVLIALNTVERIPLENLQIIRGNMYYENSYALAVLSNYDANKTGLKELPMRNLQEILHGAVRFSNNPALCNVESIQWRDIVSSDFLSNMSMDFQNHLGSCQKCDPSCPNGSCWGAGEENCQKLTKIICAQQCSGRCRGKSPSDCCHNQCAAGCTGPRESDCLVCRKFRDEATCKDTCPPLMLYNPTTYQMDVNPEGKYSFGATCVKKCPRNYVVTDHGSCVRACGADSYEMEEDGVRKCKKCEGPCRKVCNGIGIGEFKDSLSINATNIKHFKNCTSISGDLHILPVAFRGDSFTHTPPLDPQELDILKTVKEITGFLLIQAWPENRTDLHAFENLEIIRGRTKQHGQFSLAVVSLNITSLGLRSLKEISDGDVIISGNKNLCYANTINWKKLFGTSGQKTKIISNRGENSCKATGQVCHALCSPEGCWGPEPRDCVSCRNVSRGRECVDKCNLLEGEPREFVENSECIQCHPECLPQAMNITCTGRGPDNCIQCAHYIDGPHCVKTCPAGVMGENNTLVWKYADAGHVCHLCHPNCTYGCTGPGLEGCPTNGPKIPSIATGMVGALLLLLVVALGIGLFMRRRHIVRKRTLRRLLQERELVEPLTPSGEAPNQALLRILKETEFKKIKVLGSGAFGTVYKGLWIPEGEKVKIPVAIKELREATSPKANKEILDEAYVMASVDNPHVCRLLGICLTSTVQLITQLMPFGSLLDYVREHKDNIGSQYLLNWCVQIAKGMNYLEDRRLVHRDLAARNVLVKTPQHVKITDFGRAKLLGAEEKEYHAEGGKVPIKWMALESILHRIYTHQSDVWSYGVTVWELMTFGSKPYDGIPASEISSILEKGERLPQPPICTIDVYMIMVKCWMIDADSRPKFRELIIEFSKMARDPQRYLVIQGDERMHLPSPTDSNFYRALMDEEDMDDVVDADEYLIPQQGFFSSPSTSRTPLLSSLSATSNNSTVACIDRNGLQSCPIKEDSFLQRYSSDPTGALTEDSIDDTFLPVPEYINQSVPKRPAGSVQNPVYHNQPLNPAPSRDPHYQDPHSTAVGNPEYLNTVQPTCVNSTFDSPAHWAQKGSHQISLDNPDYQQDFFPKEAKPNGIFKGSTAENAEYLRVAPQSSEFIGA

Row | SMILES | IC50 ([1]; read-out: IC50 WT (nM) 100 μM ATP, 100 μM ATP) | IC50 ([2]; read-out: IC50 L858R/C797S (nM) 100 μM ATP, 100 μM ATP) | IC50 ([3]; read-out: IC50 L858R/T790M/C797S (nM) 100 μM ATP, 100 μM ATP) | IC50 ([4]; read-out: IC50 del19/T790M/C797S (nM) 100 μM ATP, 100 μM ATP) | IC50 ([5]; read-out: IC50 del19/C797S (nM) 100 μM ATP, 100 μM ATP) | IC50 [1, 6] | IC50 [1, 7] | IC50 [2, 8] | IC50 [2, 9] | IC50 [3, 10] | IC50 [3, 11] | IC50 [4, 12] | IC50 [4, 13] | IC50 [5, 14] | IC50 [5, 15] | IC50 ([1]; Km ATP, read-out: IC50 WT, Km ATP) | IC50 ([2]; Km ATP, read-out: IC50 L858R/C797S, Km ATP) | IC50 ([3]; Km ATP, read-out: IC50 L858R/T790M/C797S, Km ATP) | IC50 ([4]; Km ATP, read-out: IC50 del19/T790M/C797S, Km ATP) | IC50 ([5]; Km ATP, read-out: IC50 del19/C797S, Km ATP)
1 | CC(C)(CO)Cn1cc(-c2nccc(Nc3cc(N[C@H]4CC[C@@](C)(O)CC4)c(-c4ccn(C(F)F)n4)cn3)n2)cn1 [Example 173, (1s,4s)-4-((5-(1-(Difluoromethyl)-1H-pyrazol-3-yl)-2-((2-(1-(3-hydroxy-2,2-dimethylpropyl)-1H-pyrazol-4-yl)pyrimidin-4-yl)amino)pyridin-4-yl)amino)-1-methylcyclohexan-1-ol] |  |  |  |  |  |  | 16.7 nM |  | 107 nM |  | 0.9 nM |  | 3.9 nM |  | 333 nM |  |  |  |  | 
2 | O=S(=O)(C1CC1)n1cc(-c2nccc(Nc3cc(N[C@H]4CC[C@@H](NCCF)CC4)c(-c4nc(C(F)F)cs4)cn3)n2)cn1 [Example 123, N^2-(2-(1-(Cyclopropylsulfonyl)-1H-pyrazol-4-yl)pyrimidin-4-yl)-5-(4-(difluoromethyl)thiazol-2-yl)-N^4-((1s,4s)-4-((2-fluoroethyl)amino)cyclohexyl)pyridine-2,4-diamine] |  |  |  |  |  | > 10000 nM | 21.6 nM | 22.5 nM | 1.9 nM | 0.2 nM | 0.1 nM | 0.2 nM | 0.3 nM | 1.3 nM | 1.4 nM |  |  |  |  | 
3 | O=S(=O)(C1CC1)n1cc(-c2nccc(Nc3cc(NC4CCCC(NCC(F)F)C4)c(-c4ccn(C(F)F)n4)cn3)n2)cn1 (stereo not drawn) [Example 191, N^2-(2-(1-(Cyclopropylsulfonyl)-1H-pyrazol-4-yl)pyrimidin-4-yl)-N^4-(3-((2,2-difluoroethyl)amino)cyclohexyl)-5-(1-(difluoromethyl)-1H-pyrazol-3-yl)pyridine-2,4-diamine] |  |  |  |  |  | > 10000 nM |  | 1400 nM |  | 2.4 nM |  | 1.7 nM |  | 35.5 nM |  |  |  |  |  | 
4 | O=S(=O)(C1CC1)n1cc(-c2nccc(Nc3cc(OC4CCC(O)C4)c(-c4ccn(C(F)F)n4)cn3)n2)cn1 (stereo not drawn) [Example 67, 3-((2-((2-(1-(Cyclopropylsulfonyl)-1H-pyrazol-4-yl)pyrimidin-4-yl)amino)-5-(1-(difluoromethyl)-1H-pyrazol-3-yl)pyridin-4-yl)oxy)cyclopentan-1-ol] |  |  |  |  |  | > 10000 nM | 336 nM | 596 nM | 23.5 nM | 15.7 nM | 3.8 nM | 3.6 nM | 3.4 nM | 111 nM | 111 nM |  |  |  |  | 
5 | Cn1ccc(-c2cnc(Nc3ccnc(-c4cnn(S(=O)(=O)C5CC5)c4)n3)cc2NCC2(C)CCC(O)CC2)n1 (stereo not drawn) [Example 127, 4-(((2-((2-(1-(Cyclopropylsulfonyl)-1H-pyrazol-4-yl)pyrimidin-4-yl)amino)-5-(1-methyl-1H-pyrazol-3-yl)pyridin-4-yl)amino)methyl)-4-methylcyclohexan-1-ol] |  |  |  |  |  | > 10000 nM | 53 nM | 355 nM | 19.6 nM | 1.8 nM | 0.7 nM | 1 nM | 0.7 nM | 25.8 nM | 16.9 nM |  |  |  |  | 
6 | CN(CC(F)F)C[C@H]1CC[C@@H](Nc2cc(Nc3ccnc(-c4cnn(S(=O)(=O)C5CC5)c4)n3)ncc2-c2cc(C(F)(F)F)n(C)n2)CC1 [Example 259, N^2-(2-(1-(Cyclopropylsulfonyl)-1H-pyrazol-4-yl)pyrimidin-4-yl)-N^4-((1s,4s)-4-(((2,2-difluoroethyl)(methyl)amino)methyl)cyclohexyl)-5-(1-methyl-5-(trifluoromethyl)-1H-pyrazol-3-yl)pyridine-2,4-diamine] |  |  |  |  |  | > 10000 nM |  | 819 nM |  | 63.9 nM |  | 172 nM |  | 151 nM |  |  |  |  |  | 
7 | C[C@]1(O)CC[C@@H](Nc2cc(Nc3ccnc(-c4ccc(F)nc4)n3)ncc2-c2ccn(C(F)F)n2)CC1 [Example 113, (1s,4s)-4-((5-(1-(Difluoromethyl)-1H-pyrazol-3-yl)-2-((2-(6-fluoropyridin-3-yl)pyrimidin-4-yl)amino)pyridin-4-yl)amino)-1-methylcyclohexan-1-ol] |  |  |  |  |  | > 10000 nM | > 10000 nM | 483 nM |  | 186 nM |  | 17.5 nM |  | 606 nM |  |  |  |  |  | 

Results, then the compound that gave them:

Row | IC50 ([1]; read-out: IC50 WT (nM) 100 μM ATP, 100 μM ATP) | IC50 ([2]; read-out: IC50 L858R/C797S (nM) 100 μM ATP, 100 μM ATP) | IC50 ([3]; read-out: IC50 L858R/T790M/C797S (nM) 100 μM ATP, 100 μM ATP) | IC50 ([4]; read-out: IC50 del19/T790M/C797S (nM) 100 μM ATP, 100 μM ATP) | IC50 ([5]; read-out: IC50 del19/C797S (nM) 100 μM ATP, 100 μM ATP) | IC50 [1, 6] | IC50 [1, 7] | IC50 [2, 8] | IC50 [2, 9] | IC50 [3, 10] | IC50 [3, 11] | IC50 [4, 12] | IC50 [4, 13] | IC50 [5, 14] | IC50 [5, 15] | IC50 ([1]; Km ATP, read-out: IC50 WT, Km ATP) | IC50 ([2]; Km ATP, read-out: IC50 L858R/C797S, Km ATP) | IC50 ([3]; Km ATP, read-out: IC50 L858R/T790M/C797S, Km ATP) | IC50 ([4]; Km ATP, read-out: IC50 del19/T790M/C797S, Km ATP) | IC50 ([5]; Km ATP, read-out: IC50 del19/C797S, Km ATP) | SMILES
8 | > 10000 nM | 58.1 nM | 4 nM | 3.4 nM | 54.1 nM |  |  |  |  |  |  |  |  |  |  |  |  |  |  |  | Cn1ccc(-c2cnc(Nc3ccnc(-c4cnn(S(=O)(=O)C5CC5)c4)n3)cc2N[C@H]2CC[C@](O)(C(F)(F)F)CC2)n1 [Example 94, (1s,4s)-4-((2-((2-(1-(Cyclopropylsulfonyl)-1H-pyrazol-4-yl)pyrimidin-4-yl)amino)-5-(1-methyl-1H-pyrazol-3-yl)pyridin-4-yl)amino)-1-(trifluoromethyl)cyclohexan-1-ol]
9 |  |  |  |  |  | > 10000 nM | 74.4 nM | 10.7 nM | 3.2 nM | 0.6 nM | 0.3 nM | 0.6 nM | 2.5 nM | 200 nM | 7.6 nM |  |  |  |  |  | O=S(=O)(C1CC1)n1cc(-c2nccc(Nc3cc(NC[C@H]4CC[C@@H](O)C4)c(-c4ccn(CC(F)(F)F)n4)cn3)n2)cn1 [Example 268, (1R,3S)-3-(((2-((2-(1-(Cyclopropylsulfonyl)-1H-pyrazol-4-yl)pyrimidin-4-yl)amino)-5-(1-(2,2,2-trifluoroethyl)-1H-pyrazol-3-yl)pyridin-4-yl)amino)methyl)cyclopentan-1-ol]
10 |  |  |  |  |  |  |  |  |  |  |  |  |  |  |  | 1050 nM | 25.9 nM | 0.6 nM | 0.3 nM | 241 nM | C[C@]1(O)CC[C@@H](Nc2cc(Nc3ccnc(-c4cnn(S(=O)(=O)C5CC5)c4)n3)nnc2-c2ccn(CC(F)(F)F)n2)CC1 [Example 374, (1s,4s)-4-((6-((2-(1-(Cyclopropylsulfonyl)-1H-pyrazol-4-yl)pyrimidin-4-yl)amino)-3-(1-(2,2,2-trifluoroethyl)-1H-pyrazol-3-yl)pyridazin-4-yl)amino)-1-methylcyclohexan-1-ol]
11 |  |  |  |  |  | > 10000 nM | 3 nM | 13 nM | 1.9 nM | 0.6 nM | 0.2 nM | 0.4 nM | 0.3 nM | 1.4 nM | 0.9 nM |  |  |  |  |  | O=S(=O)(C1CC1)n1cc(-c2nccc(Nc3cc(N[C@H]4CC[C@@H](CO)CC4)c(-c4ccn(C(F)F)n4)cn3)n2)cn1 [Example 18, ((1s,4s)-4-((2-((2-(1-(Cyclopropylsulfonyl)-1H-pyrazol-4-yl)pyrimidin-4-yl)amino)-5-(1-(difluoromethyl)-1H-pyrazol-3-yl)pyridin-4-yl)amino)cyclohexyl)methanol]
12 |  |  |  |  |  | 4010 nM | 8.4 nM | 10 nM | 4.5 nM | 1 nM | 0.2 nM | 2.7 nM |  | 2 nM | 1.7 nM |  |  |  |  |  | CC(C)(O)[C@H]1CC[C@@H](Nc2cc(Nc3ccnc(-c4cnn(S(=O)(=O)C5CC5)c4)n3)ncc2-c2ccn(CC(F)F)n2)CC1 [Example 243, 2-((1s,4s)-4-((2-((2-(1-(Cyclopropylsulfonyl)-1H-pyrazol-4-yl)pyrimidin-4-yl)amino)-5-(1-(2,2-difluoroethyl)-1H-pyrazol-3-yl)pyridin-4-yl)amino)cyclohexyl)propan-2-ol]
